{
  "source": "patent US12616759B2",
  "about": "“Uses of labeled HSP90 inhibitors” (Sloan-Kettering Institute for Cancer Research, priority 2011, dated 2026)",
  "key": {"HSP90": {"system": "HSP90", "settings": "for IC50: read-out: IC50, binding to HSP90", "description": "FIGS. 1A, 1B, 1C, 1D, and 1E. […] Lysate=control cell extract. FIG. 1B HSP90 from MDA-MB-468 extracts was isolated through sequential chemical- and immuno-purification steps. The amount of HSP90 in each pool was quantified by densitometry and values were normalized to an internal standard. […] Representative data of four separate repeats is presented (lower). Expression of HSP90 in the indicated cells was analyzed by Western blot (upper). […] Post-treatment cells were treated with 1 μM PU-FITC. Binding of PU-FITC to the cells was evaluated by flow cytometry and is represented as mean fluorescence intensity (MFI). TEG-FITC is shown as a non-specific binding control. CD45 vs. SSC gating was used to distinguish binding to blast or lymphocytes from the primary specimens. […] Cell viability was evaluated by annexin V/7-AAD staining 96 h post-treatment.\nCD34+ cell isolation was performed using CD34 MicroBead Kit and the automated magnetic cell sorter autoMACS according to the manufacturer's instructions (Miltenyi Biotech, Auburn, CA). […] Cell viability was analyzed by flow cytometry (BD Biosciences). […] Cells were stained with CD34-APC, CD38-PE-CY7 and CD45-APC-H7 antibodies (BD Biosciences) in FACS buffer (PBS, 0.05% FBS) at 4° C. for 30 min prior to Annexin V/7-AAD staining. […] At 4 h post treatment, cells were washed twice with FACS buffer. […] At 24 h post treatment, cells were washed twice, and stained with CD34-APC (or CD34-PECy7), CD38-PE-CY7 (or CD38-PE) and CD45-APC-H7 antibodies in FACS buffer at 4° C. for 30 min prior to 7-AAD staining. At 48 h, and 96 h post treatment, cells were stained with CD34-APC (or CD34-PECy7), CD38-PE-CY7 (or CD38-PE) and CD45-APC-H7 antibodies followed by Annexin V-V450 and 7-AAD staining to measure cell viability in blast, lymphocytes and CD34+ cell populations. […] Cells were collected, washed twice, stained for 7-AAD in FACS buffer, and analyzed by flow cytometry. HSP90 staining—Cells were fixed with fixation buffer (BD Biosciences) at 4° C. for 30 min, and permeabilized in Perm Buffer III (BD Biosciences) on ice for 30 min. Cells were stained with anti-HSP90 phycoerythrin conjugate (PE) (F-8 clone, Santa Cruz Biotechnologies; CA) for 60 minutes. Cells were washed and then analyzed by flow cytometry. Normal mouse IgG2a-PE was used as isotype control."}, "caspase-3,7": {"system": "caspase-3,7", "assay": "caspase 3,7 activation assay", "format": "cell-based", "description": "Caspase 3,7 Activation Assay: Cells were plated and treated as described in the growth inhibition assay section. Following a 24 h or 48 h exposure of cells to Hsp90 inhibitors, 100 μL buffer containing 10 mM Hepes, pH 7.5, 2 mM EDTA, 0.1% CHAPS, 0.1 mg/mL PMSF, Complete Protease Inhibitor mix (#1697498; Roche), and the caspase substrate Z-DEVD-R110 (#R22120; Molecular Probes) at 25 μM was added to each well. Plates were placed on an orbital shaker to promote cell lysis and reaction. The fluorescence signal of each well was measured in an Analyst GT (Molecular Dev ices) microplate reader (excitation 485 nm; emission at 530 nm). The percentage increase in caspase-3,7 activity was calculated by comparison of the fluorescence reading obtained from treated versus control cells. All experimental data were analyzed using SOFTmax Pro 4.3.1 and plotted using Prism 4.0 (Graphpad Software Inc., San Diego, CA)."}, "[1]": {"assay": "PU-H71 tumor concentration by LC-MS/MS", "format": "in vivo, mice", "settings": "mouse, tumor (MDA-MB-468), read-out: actual tumor concentration by LC-MS/MS; for concentration at 24 h: 24 h after last dose", "from_the_text": "LC-MS/MS analyses. […] Samples were reconstituted in mobile phase."}},
  "note": "Read-outs that look alike come from different tables or passages of the source.",
  "data": [
    {"smiles": "CC(C)NCCCn1c(Sc2cc3c(cc2I)OCO3)nc2c(N)ncnc21", "note": "[PU-H71]", "values": [
      {"measurement": "EC50", "setting": "HSP90; read-out: EC50, affinity for normal blood cells, normal blood cells", "value": "[…]"},
      {"measurement": "IC50", "setting": "HSP90; bcCML", "value": "[…]"},
      {"measurement": "IC50", "setting": "HSP90; normal blood cells", "value": "[…]"},
      {"measurement": "EC50", "setting": "HSP90; read-out: half relative binding affinity (EC50), AML blasts", "value": "[…]"},
      {"measurement": "EC50", "setting": "HSP90; read-out: half relative binding affinity (EC50), CML blasts", "value": "[…]"},
      {"measurement": "EC50", "setting": "HSP90; read-out: half relative binding affinity (EC50), K562 cells", "value": "[…]"},
      {"measurement": "increase in caspase-3,7 activation", "setting": "caspase-3,7; Kasumi-1 and SKNO-1, 24 h", "value": "two-fold"},
      {"measurement": "increase in caspase-3,7 activation", "setting": "caspase-3,7; MOLM-13 and MO-91, 24 h", "value": "ten-fold"},
      {"measurement": "concentration at 24 h", "setting": "[1]; 5 mg/kg 3×week", "value": "0.52 ± 0.13", "unit": "µM"},
      {"measurement": "concentration at 24 h", "setting": "[1]; 75 mg/kg 1×week", "value": "5.53 ± 0.26", "unit": "µM"},
      {"measurement": "concentration at 96 h", "setting": "[1]; 75 mg/kg 1×week, 96 h after last dose", "value": "3.09 ± 1.4", "unit": "µM"}
    ]}
  ]
}
